Earlier results in US4966770A (priority 1989, dated 1990).

Which solubility in alcohol does the source give for C[C@]12C=CC(=O)C=C1CC[C@@H]1[C@@H]2C(=O)C[C@@]2(C)[C@H]1CC[C@]2(O)C(=O)CO [prednisone] here?
The solubility in alcohol was “slightly soluble in alcohol”.

What about the solubility in water of the same molecule?
The solubility in water was “very slightly soluble in water”.
